Where two headings read alike, the source gives them in different places.
Assays:
[1] = test system: Scleraxis (Scx) gene expression in rat tail tendon fascicles; assay: Ex vivo assay, Scx mRNA in tendon fascicles (qPCR); assay type: cell-based, Sprague Dawley rat; settings: 96 h, Table 3, four days, read-out: Ex vivo Scx (EC50 μM)
[2] = test system: Tenomodulin (Tnmd) gene expression in rat tail tendon fascicles; assay: Ex vivo assay, Tnmd mRNA in tendon fascicles (qPCR); assay type: cell-based, Sprague Dawley rat; settings: 96 h, Table 3, four days, read-out: Ex vivo Tnmd (EC50 μM)
[3] = test system: collagen type I (Col1a2) gene expression in rat tail tendon fascicles; assay: Ex vivo assay, Col1a2 mRNA in tendon fascicles (qPCR); assay type: cell-based, Sprague Dawley rat; settings: 96 h, Table 3, four days, read-out: Ex vivo Col1a2 (EC50 μM)
[4] = test system: Scleraxis (Scx) gene transcriptional activation in TT-D6 Scx-luciferase (ScxL) cell line; assay: SCX-LUC in vitro assay (Scx-luciferase reporter); assay type: cell-based; settings: Mus musculus
[5] = 96 h, Table 3, four days, read-out: Scx-Luc (EC50 μM)

Row | SMILES | EC50 [4, 5] [µM] | further results
1 | COc1c(-c2ccc(S(=O)(=O)N[C@@H]3CCC[C@@H]3O)cc2C)ccc2[nH]nc(N)c12 [Example 73, 4-(3-amino-4-methoxy-1H-indazol-5-yl)-N-((1R,2S)-2-hydroxycyclopentyl)-3-methylbenzenesulfonamide] | 0.632 | EC50 [1]: 5.23 µM; EC50 [2]: 6.51 µM; EC50 [3]: 3.77 µM
2 | COc1c(-c2ccc(S(=O)(=O)N[C@H]3C[C@](O)(C(F)(F)F)C3)cc2Cl)ccc2[nH]nc(N)c12 [Example 65, 4-(3-amino-4-methoxy-1H-indazol-5-yl)-3-chloro-N-((1s,3s)-3-hydroxy-3-(trifluoromethyl)cyclobutyl)benzenesulfonamide] | 1.22 | –
3 | Cc1cc(S(=O)(=O)N2CC(C#N)C2)ccc1-c1ccc2[nH]nc(N)c2c1C [Example 22, 1-((4-(3-amino-4-methyl-1H-indazol-5-yl)-3-methylphenyl)sulfonyl)azetidine-3-carbonitrile] | 0.879 | –
4 | Cc1cc(S(=O)(=O)N[C@]2(C)C[C@H](O)C2)ccc1-c1ccc2[nH]nc(N)c2c1C [Example 36, 4-(3-amino-4-methyl-1H-indazol-5-yl)-N-((1s,3s)-3-hydroxy-1-methylcyclobutyl)-3-methylbenzenesulfonamide] | 0.806 | –
5 | Cc1cc(S(=O)(=O)N[C@@H]2CC[C@H](O)C2)ccc1-c1ccc2[nH]nc(N)c2c1C [Example 35, 4-(3-amino-4-methyl-1H-indazol-5-yl)-N-((1R,3S)-3-hydroxycyclopentyl)-3-methylbenzenesulfonamide] | 1.52 | –
6 | Nc1n[nH]c2ccc(-c3ccc(S(=O)(=O)N4CC[C@@H](O)C4)cc3Cl)c(Cl)c12 [Example 8, (R)-1-((4-(3-amino-4-chloro-1H-indazol-5-yl)-3-chlorophenyl)sulfonyl)pyrrolidin-3-ol] | 3.6 | –
7 | Cc1cc(S(=O)(=O)N[C@H]2CC[C@@H](C#N)CC2)ccc1-c1ccc2[nH]nc(N)c2c1C [Example 27, 4-(3-amino-4-methyl-1H-indazol-5-yl)-N-((1s,4s)-4-cyanocyclohexyl)-3-methylbenzenesulfonamide] | 1.35 | –
8 | Cc1cc(S(=O)(=O)N(C)[C@@H]2CCC[C@@H]2O)ccc1-c1ccc2[nH]nc(N)c2c1C [Example 84, 4-(3-amino-4-methyl-1H-indazol-5-yl)-N-((1R,2S)-2-hydroxycyclopentyl)-N,3-dimethylbenzenesulfonamide] | 1.69 | –
9 | Cc1cc(S(=O)(=O)N[C@@H]2CCCC[C@@H]2O)ccc1-c1ccc2[nH]nc(N)c2c1C [Example 17, 4-(3-amino-4-methyl-1H-indazol-5-yl)-N-((1R,2S)-2-hydroxycyclohexyl)-3-methylbenzenesulfonamide] | 4.8 | –
10 | Cc1cc(S(=O)(=O)N[C@@H]2CCC[C@@H]2O)ccc1-c1ccc2[nH]nc(N)c2c1Cl [Example 29, 4-(3-amino-4-chloro-1H-indazol-5-yl)-N-((1R,2S)-2-hydroxycyclopentyl)-3-methylbenzenesulfonamide] | 0.277 | –
11 | Cc1cc(S(=O)(=O)N2CCC[C@H]2C(C)O)ccc1-c1ccc2[nH]nc(N)c2c1C (stereo partly drawn) [Example 60, 1-((S)-1-((4-(3-amino-4-methyl-1H-indazol-5-yl)-3-methylphenyl)sulfonyl)pyrrolidin-2-yl)ethan-1-ol] | 1.61 | –
12 | COc1c(-c2ccc(S(=O)(=O)N[C@@H]3CCC[C@@H]3O)cc2Cl)ccc2[nH]nc(N)c12 [Example 74] | 0.286 | –
13 | Cc1cc(S(=O)(=O)NC2CC(F)(F)C2)ccc1-c1ccc2[nH]nc(N)c2c1C [Example 24, 4-(3-amino-4-methyl-1H-indazol-5-yl)-N-(3,3-difluorocyclobutyl)-3-methylbenzenesulfonamide] | 0.366 | –
14 | Cc1cc(S(=O)(=O)NC2CC(O)(c3ccccc3)C2)ccc1-c1ccc2[nH]nc(N)c2c1C (centres unmarked) [Example 52, 4-(3-amino-4-methyl-1H-indazol-5-yl)-N-(3-hydroxy-3-phenylcyclobutyl)-3-methylbenzenesulfonamide] | 0.578 | –
15 | Cc1cc(S(=O)(=O)N2C[C@H](F)C[C@H]2CO)ccc1-c1ccc2[nH]nc(N)c2c1C [Example 87, ((2S,4R)-1-((4-(3-amino-4-methyl-1H-indazol-5-yl)-3-methylphenyl)sulfonyl)-4-fluoropyrrolidin-2-yl)methanol] | 0.288 | –
16 | Cc1cc(S(=O)(=O)N2CC[C@H]2CO)ccc1-c1ccc2[nH]nc(N)c2c1C [Example 10, (S)-(1-((4-(3-amino-4-methyl-1H-indazol-5-yl)-3-methylphenyl)sulfonyl)azetidin-2-yl)methanol] | 1.79 | –
17 | COc1c(-c2ccc(S(=O)(=O)N3CC(F)(F)C[C@H]3CO)cc2F)ccc2[nH]nc(N)c12 [Example 41, (S)-(1-((4-(3-amino-4-methoxy-1H-indazol-5-yl)-3-fluorophenyl)sulfonyl)-4,4-difluoropyrrolidin-2-yl)methanol] | 1.33 | –
18 | Cc1cc(S(=O)(=O)NC2CC(F)(F)C2)ccc1-c1ccc2[nH]nc(N)c2c1Cl [Example 66, 4-(3-amino-4-chloro-1H-indazol-5-yl)-N-(3,3-difluorocyclobutyl)-3-methylbenzenesulfonamide] | 1.08 | –

Row | SMILES | EC50 [4, 5] [µM] | further results
19 | Cc1cc(S(=O)(=O)N[C@H]2CCC[C@H]2O)ccc1-c1ccc2[nH]nc(N)c2c1C [Example 48, 4-(3-amino-4-methyl-1H-indazol-5-yl)-N-((1S,2R)-2-hydroxycyclopentyl)-3-methylbenzenesulfonamide] | 0.854 | –
20 | Cc1c(-c2ccc(S(=O)(=O)N3CC(F)(F)C[C@H]3CO)cc2F)ccc2[nH]nc(N)c12 [Example 42, (S)-(1-((4-(3-amino-4-methyl-1H-indazol-5-yl)-3-fluorophenyl)sulfonyl)-4,4-difluoropyrrolidin-2-yl)methanol] | 0.814 | –
21 | Cc1cc(S(=O)(=O)N2CCC(C#N)CC2)ccc1-c1ccc2[nH]nc(N)c2c1C [Example 23, 1-((4-(3-amino-4-methyl-1H-indazol-5-yl)-3-methylphenyl)sulfonyl)piperidine-4-carbonitrile] | 1.85 | –
22 | Cc1cc(S(=O)(=O)N2CC(C)(O)C2)ccc1-c1ccc2[nH]nc(N)c2c1C [Example 13, 1-((4-(3-amino-4-methyl-1H-indazol-5-yl)-3-methylphenyl)sulfonyl)-3-methylazetidin-3-ol] | 2.33 | –
23 | COc1c(-c2ccc(S(=O)(=O)N3CC(F)(F)C[C@H]3CO)cc2Cl)ccc2[nH]nc(N)c12 [Example 86, (S)-(1-((4-(3-amino-4-methoxy-1H-indazol-5-yl)-3-chlorophenyl)sulfonyl)-4,4-difluoropyrrolidin-2-yl)methanol] | 0.731 | –
24 | Cc1cc(S(=O)(=O)N2CCC[C@@H]2CO)ccc1-c1ccc2[nH]nc(N)c2c1C [Example 20, (R)-(1-((4-(3-amino-4-methyl-1H-indazol-5-yl)-3-methylphenyl)sulfonyl)pyrrolidin-2-yl)methanol] | 0.723 | –
25 | Cc1cc(S(=O)(=O)NC2CCCC(O)C2)ccc1-c1ccc2[nH]nc(N)c2c1C (centres unmarked) [Example 25, 4-(3-amino-4-methyl-1H-indazol-5-yl)-N-(3-hydroxycyclohexyl)-3-methylbenzenesulfonamide] | 0.606 | –
26 | Cc1cc(S(=O)(=O)N2C[C@@H](F)C[C@H]2CO)ccc1-c1ccc2[nH]nc(N)c2c1C [Example 92, ((2S,4S)-1-((4-(3-amino-4-methyl-1H-indazol-5-yl)-3-methylphenyl)sulfonyl)-4-fluoropyrrolidin-2-yl)methanol] | 1.01 | –
27 | Cc1cnc(Nc2ccc(OCCN3CCCC3)cc2)nc1Nc1cccc(S(=O)(=O)NC(C)(C)C)c1 [reference compound] | – | EC50 ([4]; Table 1, read-out: Scx-Luc (EC50 uM)): 0.62 µM
28 | Cc1c(-c2c(F)cc(S(=O)(=O)N3CC(F)(F)C[C@H]3CO)cc2F)ccc2[nH]nc(N)c12 [Example 89, (S)-(1-((4-(3-amino-4-methyl-1H-indazol-5-yl)-3,5-difluorophenyl)sulfonyl)-4,4-difluoropyrrolidin-2-yl)methanol] | 0.554 | –
29 | Cc1cc(S(=O)(=O)N2CC(F)(F)C[C@@H]2CO)ccc1-c1ccc2[nH]nc(N)c2c1C [Example 88, (R)-(1-((4-(3-amino-4-methyl-1H-indazol-5-yl)-3-methylphenyl)sulfonyl)-4,4-difluoropyrrolidin-2-yl)methanol] | 0.22 | –
30 | Nc1n[nH]c2ccc(-c3ccc(S(=O)(=O)N4CC(F)(F)C[C@H]4CO)cc3F)c(F)c12 [Example 61, (S)-(1-((4-(3-amino-4-fluoro-1H-indazol-5-yl)-3-fluorophenyl)sulfonyl)-4,4-difluoropyrrolidin-2-yl)methanol] | 1.5 | –
31 | Cc1cc(S(=O)(=O)N2CCC[C@H]2CO)ccc1-c1ccc2[nH]nc(N)c2c1Cl [Example 28, (S)-(1-((4-(3-amino-4-chloro-1H-indazol-5-yl)-3-methylphenyl)sulfonyl)pyrrolidin-2-yl)methanol] | 0.436 | –
32 | Cc1cc(S(=O)(=O)N2CCCC(F)(F)C2)ccc1-c1ccc2[nH]nc(N)c2c1C [Example 79, 5-(4-((3,3-difluoropiperidin-1-yl)sulfonyl)-2-methylphenyl)-4-methyl-1H-indazol-3-amine] | 1.52 | –
33 | Cc1cc(S(=O)(=O)N2CC(O)C2)ccc1-c1ccc2[nH]nc(N)c2c1C [Example 11, 1-((4-(3-amino-4-methyl-1H-indazol-5-yl)-3-methylphenyl)sulfonyl)azetidin-3-ol] | 4.13 | –
34 | Cc1c(-c2ccc(S(=O)(=O)NC3CC(F)(F)C3)cc2Cl)ccc2[nH]nc(N)c12 [Example 68, 4-(3-amino-4-methyl-1H-indazol-5-yl)-3-chloro-N-(3,3-difluorocyclobutyl)benzenesulfonamide] | 1.86 | –
35 | Cc1cc(-c2ccc3[nH]nc(N)c3c2C)ccc1S(=O)(=O)N1CC(F)(F)C[C@H]1CO [Example 91, (S)-(1-((4-(3-amino-4-methyl-1H-indazol-5-yl)-2-methylphenyl)sulfonyl)-4,4-difluoropyrrolidin-2-yl)methanol] | 2.91 | –
